Source: patent USRE39682E1, “Farnesyl derivatives and pharmaceutical compositions containing them” (Ramot at Tel Aviv University Ltd., priority 1993, dated 2007)

Experiments:
ras proteins = test: Methylation of immunoprecipitated ras proteins in intact ras-transformed rat1 cells; type: cell-based, rat; details: 100 μM, FIG. 4
Description: HEC1A, rail, ras-transformed rail and B16F10 melanoma cells were also used for metabolic labelling of endogenous proteins with 100-300 μCi/ml [methyl-^3H]methionine which was also indicative of PPMTase activity. Metabolic labelling procedures were as detailed elsewhere (Hakiai et al., supra. (1991); Lenner et al., supra. (1992)), and immunoprecipitation of ras with Y13-159 Ab were as detailed by Clarke et al. (Proc. Natl. Acad. Sci. USA, 85, 4643-4647 (1988)).
While the above Table II determines the PPMTase activity by assaying the methylation of a synthetic substrate, FIG. 3 determines this activity by methylation of various endogenous ras-like prenylated GTP-binding proteins present in intact HEC1A, ras-transformed rat1 and melanoma cells, with and without 100 μM of FTA or FTS. […] Use of [α-P^32]

[1] = tested on: Ha-ras transformed rat1 (EJ) cells; test: Tumor growth in nude mice implanted with Ha-ras-transformed rat1 cells; type: in vivo, nude mice (CD1-Nu)
Description: Male nude mice (CD1—Nu) were obtained from the Weizmann Institute of Science, Rehovot, Israel. Groups of 5 to 8 mice (3-4 weeks old, 25±2 gr body weight) were used in each experiment for both; controls and FTS treatment. Cells (Ha-ras transformed rat1 (EJ) cells, 2×10^6 cells in 100 μl PBS) were injected systematically (s.c.). Cell implantation and drug administration began on the same day. The EJ cells were prepared from confluent cultures. Cells were detached with trypsin/EDTA, washed with DMEM/10% FCS followed by 3 times PBS washes. A suspension of 2×10^7 cells/ml was prepared and used for experiment within 15-30 min. of preparation.
FTS was prepared as a stock solution (0.225M) in ethanol. It was diluted just prior to the drug administration with PBS to yield a solution of 1.35 mM FTS, 0.6% ethanol. Under these conditions FTS remained in solution for the period of time required for administration.
Experimental mice received 100 μl of the FTS solution, respectively, daily or every other day. Controls received the appropriate administration of 0.6% ethanol in PBS. Tumor growth was monitored by daily observations and by size measurement using a millimetric caliper (two dimensions of the tumor size were taken usually twice a week).
Data were expressed in terms of tumor size (cm^2) in each mouse as a function of time.
Ha-ras transformed rat1 cells (2×10^6) were implanted beneath the skin of the right hind leg of nude mice. The mice received a systemic s.c. injection of either the solvent (0.6% ethanol in PBS) or FTS, starting on the day of cell implantations. Two sets of experiments were performed. In the one set the mice received 3.6 mg/kg FTS daily. Tumors sizes measured every 3-4 days beginning on day 10 of the experiment. […] Out of the 8 control mice, 6 developed tumors having a size of 4 cm^2 or greater and 2 developed tumors of 2 cm^2 or less. In another set of experiments mice received 1.6 mg/kg FTS every other day.

C57 black mice = test: In vivo toxicity, repeated s.c. or i.p. injection; details: 0.21 mg/kg s.c. or i.p. every 3 days for 2 weeks
Description: Toxicity tests in intact animals were performed with C57 black and with bulb-C mice.
Four groups, each comprising 9 mice, were used. Animals of group one received 100 μl s.c. injections of 150 μM FTS in salient solution containing 1% DMSO (0.21 mg drug/kg body weight). The drug was injected every 3 days for 2 weeks. Group two, which served as controls, received the solvent/saline solution for the same period of time.

[2] = tested on: HEC1A, rat1 and ras-transformed rat1 cells; test: In vitro toxicity: MTT and trypan blue staining; type: cell-based; details: human (HEC1A), rat (rat1, ras-transformed rat1), 50 μM
Description: Cells were counted following 3, 7 and 10 days of beginning of treatments with drugs. For counting, cells were detached from plates with trypsin/EDTA, and collected by a low speed spin in the presence of DMEM/10% FCS. The pelleted cells were resuspended in a small volume of DMEM/10% FCS and counted under the microscope. Viability of cells was estimated by staining with (3-(4,5-dimethylthiosol-2-yl)-2,5-diphenyltetrazolium bromide (MTT) and microscopic examination of the stained and unstained cells, or spectrophotometric estimation (OD490, 590) of the total stain in each well. Non viable cells were estimated by the trypan blue exclusion method.
In order to determine the long term effects of both FTA and FTS on cell survival, a colorometric method using MTT, which stains only live cells, was employed (Mosmen, F. J. Immunol. Meth., 65, 55-63 (1983), and tryptan blue exclusion staining in which only dead cells are stained, were employed. Cells were incubated with 50 μM of either FTA or FTS for a period of up to 5 days in culture. This concentration is 10-30 times the Ki values of FTS and FTA as calculated above. As control served cells incubated in 0.1% DMSO with no drug.

[3] = tested on: SV-40 T-antigen transformed CHO cells; test: Growth of T-antigen transformed cells; type: cell-based; details: 25 μM
Description: (§1) The cell lines employed were rat1, -EJ, which are rat1 cells stably expressing Val- 12 activated human Ha-ras gene (Land H. et al., Nature, 304, 596-602, (1983)); V-raf-3T3, which are 3T3 cells stably expressing the V-raf gene (Xu, N., et al., Proc. Natl. Acad. Sci., 90, 6741-6745); RB-22, which are 3T3 cells stably expressing the rat Erb-B2 gene (Peles, et al., EMBO J., 10, 2077-2086 (1991)) CO6O cells (SV40-CHO), which are CHE cells stably expressing the SV-40 T-antigen gene (Lavi, Proc. Natl. Acad. Sci., 78, 6144-6148 (1981)); human endometrial carcinoma cell line HEC1A, which are cells that express activated K-ras (Enomoto T., Cancer Res., 50, 6139-6145; mouse B16F10 melanoma cells, rat pheochromocytoma PC12 cells, […] cells CHE and COS cells.
(§2) HEC1A, V-raf-3T3 and SV40-CHE cells were grown in Dulbecco's modified Eagle medium (DMEM) containing 10% fetal calf serum (FCS), 4 mM L-glutamine, 10 μg/ml streptomycin and 10 U/ml penicillin. Rat1 and -EJ cells were grown in the same medium except that it was supplemented with 12.5 U/ml nyostatin. RB-22 cells were grown in modified DMEM (1 mM sodium pyruvate, 20 mM sodium bicarbonate)/10% FCS containing 4 mM L-glutamine, […] streptomycin, 10 U/ml penicillin. […]
(§3) The potent PPMTase inhibitor FTS was used to examine selectivity of the drugs towards ras-dependent growth-signaling pathways. […] Cells were counted on day 5 of the experiment.

[4] = tested on: Erb-B2 transformed 3T3 cells (RB-22); test: Growth of Erb-B2 transformed cells; type: cell-based; details: 25 μM
Description: as §1, §2, §3

## CC(C)=CCC/C(C)=C/CC/C(C)=C/CSc1ccccc1C(=O)O [FTS, (3,7,11-trimethyl-dodeca-2,6,10-trienyl)-2-thiobenzoic acid]
Ras proteins
  inhibition of methylation of ras proteins: inhibits
[1]; 1.6 mg/kg every other day, FIG. 13
  effect on tumor growth: inhibitory effects
[1]; 3.6 mg/kg daily, systemic s.c.
  mice out of 8 that developed tumors of 2 cm2 or less: 6
  mice out of 8 that developed tumors of greater than 4 cm2: 2
[1]; 3.6 mg/kg daily, systemic s.c., FIG. 12
  effect on tumor growth: profound inhibition of tumor growth
C57 black mice
  deaths out of the 18 drug treated animals: one
[2]
  cells stained with trypan blue (dead): less than 5%
[3]
  effect on growth of T-antigen-transformed cells: no effects
[3]; Y-antigen transformed CHO, day 5
  Number of cells (% of control): 99 ± 9 % of control
[4]
  effect on growth of Erb-B2-transformed cells: sufficient to inhibit growth
[4]; Brb-B2 transformed 3T3, day 5
  Number of cells (% of control): 36 % of control
